One molecule from paper PMC8950173 (Pharmaceuticals, 2022) can be followed below.

The target in one data set is T1, human recombinant HDAC1 (Homo sapiens, UniProt Q13547).
T1 construct: purchased BPS Bioscience Inc. 50051
The data set can be described thus: Inhibition assay HDAC1 (fluorogenic substrate ZMAL). Type of data set: biochemical. The conditions noted are these: 60 min preincubation at 25 °C. The method, then:
(§1) In vitro inhibitory activities against HDAC1−3 and HDAC6 were measured as previously published with minor modifications. […] Subsequently, 50 µL trypsin solution (0.4 mg/mL trypsin in buffer: 50 mM Tris−HCl, pH = 8.0, 100 mM NaCl) was added, followed by additional 30 min of incubation at 37 °C. […] All compounds were tested at least twice in duplicates.

Data set [1] can be described thus: Lipophilicity logD7.4, shake-flask method n-octanol/PBS. Type of data set: physicochemical. Conditions: n-octanol/PBS pH 7.4, room temperature, n = 8. The protocol:
Radiochemical stability of [^18F]BA3 was investigated in 0.9% NaCl solution (containing 10% EtOH) and in n-octanol at room temperature for 2 h. Samples were analysed by radio-RP-HPLC (see quality control). The LogD7.4 value of [^18F]BA3 was experimentally determined in n-octanol/phosphate-buffered saline (PBS, pH = 7.4) at room temperature by the shake-flask method as described previously. Briefly, small tracer amounts (~800 kBq) were added to a mixture of 3 mL n-octanol and 3 mL PBS. After shaking for 20 min, the samples were centrifuged (10,000 rpm, 5 min) and 1 mL aliquots of the organic as well as aqueous layer were taken and measured in a gamma counter (1480 WIZARD, Perkin Elmer, Turku, Finland). Another 1 mL aliquot of the organic layer was mixed with 2 mL n-octanol and 3 mL PBS and subjected to the same procedure until constant partition coefficient values had been obtained. The measurement was performed twice in quadruplicate.

Another data set concerns the target T2, human recombinant HDAC6 (Homo sapiens, UniProt Q9UBN7).
T2 construct: purchased BPS Bioscience Inc. 50006
T2 sequence (Q9UBN7 1-1215): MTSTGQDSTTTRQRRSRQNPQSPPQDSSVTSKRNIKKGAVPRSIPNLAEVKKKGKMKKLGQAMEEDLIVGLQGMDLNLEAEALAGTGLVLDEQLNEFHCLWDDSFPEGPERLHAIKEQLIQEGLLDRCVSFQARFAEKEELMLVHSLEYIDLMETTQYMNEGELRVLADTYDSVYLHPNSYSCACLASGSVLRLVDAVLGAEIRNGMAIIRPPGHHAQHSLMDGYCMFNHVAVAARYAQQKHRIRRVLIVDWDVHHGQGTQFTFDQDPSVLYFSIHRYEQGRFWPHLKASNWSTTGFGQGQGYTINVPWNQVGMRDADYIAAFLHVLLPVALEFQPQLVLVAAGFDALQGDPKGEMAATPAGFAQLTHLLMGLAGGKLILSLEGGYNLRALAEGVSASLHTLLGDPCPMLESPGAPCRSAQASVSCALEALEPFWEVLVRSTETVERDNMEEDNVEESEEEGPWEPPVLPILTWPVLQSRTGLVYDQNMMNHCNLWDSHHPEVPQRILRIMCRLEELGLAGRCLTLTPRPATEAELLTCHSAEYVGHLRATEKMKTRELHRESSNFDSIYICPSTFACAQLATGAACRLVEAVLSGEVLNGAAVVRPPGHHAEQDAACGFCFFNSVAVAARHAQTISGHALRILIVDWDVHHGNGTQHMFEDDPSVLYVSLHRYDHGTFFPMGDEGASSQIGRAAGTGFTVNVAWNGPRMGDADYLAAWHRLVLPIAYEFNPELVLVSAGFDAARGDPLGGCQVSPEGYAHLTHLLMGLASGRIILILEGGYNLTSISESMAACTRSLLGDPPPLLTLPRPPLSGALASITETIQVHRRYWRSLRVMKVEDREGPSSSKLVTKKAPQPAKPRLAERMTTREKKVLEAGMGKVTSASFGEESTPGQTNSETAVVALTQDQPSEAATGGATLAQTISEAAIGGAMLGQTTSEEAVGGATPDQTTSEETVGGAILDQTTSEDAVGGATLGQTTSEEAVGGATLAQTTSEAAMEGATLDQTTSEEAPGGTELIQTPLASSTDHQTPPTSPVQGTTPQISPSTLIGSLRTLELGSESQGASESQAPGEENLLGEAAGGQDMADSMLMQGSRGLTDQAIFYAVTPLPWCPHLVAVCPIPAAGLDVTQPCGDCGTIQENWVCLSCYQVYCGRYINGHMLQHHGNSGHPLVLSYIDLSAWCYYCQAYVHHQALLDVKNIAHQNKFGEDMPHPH
The data set can be described thus: Inhibition assay HDAC6 (fluorogenic substrate ZMAL). Format: biochemical. Conditions: from IC50 values. The method, then: as §1

In data set [2] the target is T3, P-glycoprotein (P-gp) efflux transporter (Mus musculus, UniProt P21447).
T3 construct: from tissue; host or cells: living CD-1 mice, brain / blood-brain barrier
T3 sequence (P21447 whole entry): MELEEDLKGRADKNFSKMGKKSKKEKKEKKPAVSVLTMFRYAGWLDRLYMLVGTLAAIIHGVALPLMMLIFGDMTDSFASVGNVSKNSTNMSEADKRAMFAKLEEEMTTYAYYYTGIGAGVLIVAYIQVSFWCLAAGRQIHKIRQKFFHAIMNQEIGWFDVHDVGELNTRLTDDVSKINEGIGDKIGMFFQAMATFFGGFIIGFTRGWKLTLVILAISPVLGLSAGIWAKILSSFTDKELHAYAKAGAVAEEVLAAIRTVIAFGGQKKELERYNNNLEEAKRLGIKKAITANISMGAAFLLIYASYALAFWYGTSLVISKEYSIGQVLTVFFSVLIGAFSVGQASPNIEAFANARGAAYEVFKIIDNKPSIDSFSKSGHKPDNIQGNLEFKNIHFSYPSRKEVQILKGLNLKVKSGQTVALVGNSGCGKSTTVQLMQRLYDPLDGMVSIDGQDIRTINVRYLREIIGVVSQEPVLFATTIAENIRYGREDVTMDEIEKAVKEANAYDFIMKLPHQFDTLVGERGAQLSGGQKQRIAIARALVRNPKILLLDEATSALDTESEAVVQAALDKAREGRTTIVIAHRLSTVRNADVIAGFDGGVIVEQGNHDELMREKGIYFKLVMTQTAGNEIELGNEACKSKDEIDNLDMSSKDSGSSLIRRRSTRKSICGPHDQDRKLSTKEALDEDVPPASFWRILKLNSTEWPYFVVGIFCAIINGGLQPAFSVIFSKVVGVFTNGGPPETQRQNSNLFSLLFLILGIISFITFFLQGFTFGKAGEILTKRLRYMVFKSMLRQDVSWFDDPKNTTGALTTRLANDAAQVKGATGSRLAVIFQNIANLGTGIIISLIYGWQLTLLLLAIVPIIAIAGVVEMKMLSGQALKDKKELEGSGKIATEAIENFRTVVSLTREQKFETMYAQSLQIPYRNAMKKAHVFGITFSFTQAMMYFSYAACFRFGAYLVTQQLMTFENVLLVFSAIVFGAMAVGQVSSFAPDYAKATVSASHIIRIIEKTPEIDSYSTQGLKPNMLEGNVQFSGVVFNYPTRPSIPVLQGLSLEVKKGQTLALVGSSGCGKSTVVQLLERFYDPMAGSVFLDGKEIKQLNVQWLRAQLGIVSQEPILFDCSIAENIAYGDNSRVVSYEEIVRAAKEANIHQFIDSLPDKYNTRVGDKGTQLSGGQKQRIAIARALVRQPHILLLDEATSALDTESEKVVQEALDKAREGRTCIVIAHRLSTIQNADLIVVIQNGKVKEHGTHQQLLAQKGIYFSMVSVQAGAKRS
The data set can be described thus: P-gp efflux transporter PET study with cyclosporine A pre-treatment. Format: in vivo. The conditions noted are these: for initial brain uptake: n = 2. The method, then: For the time of the experiments, female CD-1 mice (n = 6; 8–15 weeks; 29–43 g) were kept in a dedicated climatic chamber with free access to water and food under a 12:12 h dark:light cycle at a constant temperature (24 °C). The animals were anaesthetized (Anaesthesia Unit U-410, agntho’s, Lidingö, Sweden) with isoflurane (2.0%, 300 mL/min) delivered in a 60% oxygen/40% air mixture (Gas Blender 100 Series, MCQ instruments, Rome, Italy) and their body temperature maintained at 37 °C with a thermal bed system. For baseline studies [^18F]BA3 was injected into the tail vein (n = 2; 6.0 ± 0.6 MBq in 150 µL isotonic saline; 9.2 ± 0.7 nmol/kg; Am: 21 GBq/μmol, EOS) followed by a dynamic 60 min PET/MR scan (Mediso nanoScan®, Budapest, Hungary). Permeability-glycoprotein efflux transporter studies consisted in pre-treatment via i.v. injection of cyclosporine A (50 mg/kg in NaCl/DMSO/kolliphor, 7:1:2, v/v; n = 2) or of vehicle (NaCl/DMSO/kolliphor, 7:1:2, v/v; n = 2) 30 min prior to [^18F]BA3 (6.0 ± 0.9 MBq; 4.9 ± 0.7 nmol/kg; Am: 32–37 GBq/μmol, EOS). Each PET image was corrected for random coincidences, dead time, scatter and attenuation (AC), based on a whole body (WB) MR scan. The reconstruction parameters for the list mode data were 3D-ordered subset expectation maximization (OSEM), 4 iterations, 6 subsets, energy window: 400–600 keV, coincidence mode: 1–5, ring difference: 81. The mice were positioned prone in a special mouse bed (heated up to 37 °C), with the head fixed to a mouth piece for the anaesthetic gas supply with isoflurane in 40% air and 60% oxygen. The PET data were collected by a continuous WB scan during the entire investigation. Following the 60 min PET scan a T1 weighted WB gradient echo sequence (TR/TE: 20/6.4 ms, NEX: 1, FA: 25, FOV: 64 × 64 mm, Matrix: 128 × 128, STh: 0.5 mm) was performed for AC and anatomical orientation. […]. The respective brain regions were identified using the mouse brain atlas template Ma-Benveniste-Mirrione-FDG. The activity data are expressed as mean SUV of the overall ROI.

T1 sequence (Q13547 whole entry): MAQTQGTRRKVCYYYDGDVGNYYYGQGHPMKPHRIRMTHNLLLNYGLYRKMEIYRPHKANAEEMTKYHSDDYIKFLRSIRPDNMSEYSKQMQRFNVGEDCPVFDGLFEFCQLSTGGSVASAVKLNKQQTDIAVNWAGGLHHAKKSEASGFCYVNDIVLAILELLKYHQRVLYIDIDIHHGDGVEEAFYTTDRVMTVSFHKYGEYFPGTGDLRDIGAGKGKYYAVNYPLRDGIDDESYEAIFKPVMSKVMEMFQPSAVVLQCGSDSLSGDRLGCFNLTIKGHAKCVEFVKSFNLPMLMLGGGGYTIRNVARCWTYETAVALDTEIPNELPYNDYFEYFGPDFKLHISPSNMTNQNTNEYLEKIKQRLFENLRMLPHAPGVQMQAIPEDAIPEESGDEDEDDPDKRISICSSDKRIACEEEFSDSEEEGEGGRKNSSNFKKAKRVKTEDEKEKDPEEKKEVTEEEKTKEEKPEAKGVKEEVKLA

Broadly, the IC50 is the midpoint of a concentration-inhibition curve. By logD is commonly meant the decadic logarithm of the distribution of all forms, ionised or not, between an organic phase and buffer at a given pH. For `CC([18F])C(=O)NCc1ccc(C(=O)Nc2cc(-c3ccsc3)ccc2N)cc1` (stereo not shown) [[^18F]BA3], the half-maximal inhibitory concentration (IC50) at human recombinant HDAC1 worked out at 4.8 ± 0.6 nM. In addition, the logD in data set [1] was determined as 1.75 ± 0.16. Further, the “specificity ratio HDAC1 over HDAC6” value at human recombinant HDAC6 was above 2080. In data set [2] (concluded from cyclosporine A pre-administration), the P-gp substrate status result is listed as “substrate of P-gp”. Also, the “increase of initial brain uptake by cyclosporine A” value in data set [2] (cyclosporine A vs vehicle pre-administration) is reported as “about factor two”. Further, the values for the initial brain uptake in data set [2] (pre-administration of cyclosporine A 50 mg/kg i.v. 30 min before tracer) and in data set [2] (pre-administration of vehicle 30 min before tracer) were 0.42 SUV and 0.18 SUV, respectively.
